For 18 compounds, EC50 results are on record in US20240043404A1 (AbbVie Inc., priority 2009, published 2024).

Each structure is given as a SMILES string. pEC50: −log10 of the molar value.

One assay relates to RS4;11 cells. As to the kind of experiment: RS4;11 cell viability assay (CellTiter Glo).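 Further: acute lymphoblastic leukemia line RS4,11, EC50 derived from percentage of viable cells after treatment relative to untreated controls, cell killing taken as a measure of Bcl-2 inhibition.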 Format: cell-based, human. Conditions: Homo sapiens, RS4-11, 48 h, 50,000 cells per well, 10% human serum, 48 hours; read-out: RS4; 11 EC50 Values. (ATP-based viability assays read luminescence as a measure of living cells.)
Experimental: The acute lymphoblastic leukemia (ALL) cell line RS4;11 was used as the primary human cell line to assess the cellular activity of Bcl-2 selective agents in vitro and their efficacy in vivo.
Cell cytotoxicity EC50 values were assessed using CellTiter Glo (Promega) according to the manufacturer's recommendations. The EC50 values were determined as a percentage of viable cells following treatment compared to the untreated control cells.
For `CC1(C)CCC(CN2CCN(c3ccc(C(=O)NS(=O)(=O)c4ccc(NCC5CCC(F)(F)CC5)c([N+](=O)[O-])c4)c(Oc4cnc5[nH]ccc5c4)c3)CC2)=C(c2ccc(Cl)cc2)C1` [Example 239, 4-(4-{[2-(4-chlorophenyl)-4,4-dimethylcyclohex-1-en-1-yl]methyl}piperazin-1-yl)-N-[(4-{[(4,4-difluorocyclohexyl)methyl]amino}-3-nitrophenyl)sulfonyl]-2-(1H-pyrrolo[2,3-b]pyridin-5-yloxy)benzamide], the pEC50 was 7.63.

On to `O=C(NS(=O)(=O)c1ccc(NCCCN2CCOCC2)c([N+](=O)[O-])c1)c1ccc(N2CCN(Cc3ccccc3-c3ccc(Cl)cc3)CC2)cc1Oc1ccc2[nH]ccc2c1` [Example 88, 4-{4-[(4′-chloro-1,1′-biphenyl-2-yl)methyl]piperazin-1-yl}-2-(1H-indol-5-yloxy)-N-({4-[(3-morpholin-4-ylpropyl)amino]-3-nitrophenyl}sulfonyl)benzamide], for which the pEC50 was 6.35.

`CC1(C)CCC(CN2CCN(c3ccc(C(=O)NS(=O)(=O)c4ccc(OCC5(F)CCOCC5)c(C#N)c4)c(Oc4cnc5[nH]ccc5c4)c3)CC2)=C(c2ccc(Cl)cc2)C1` [Example 299, 4-(4-{[2-(4-chlorophenyl)-4,4-dimethylcyclohex-1-en-1-yl]methyl}piperazin-1-yl)-N-({3-cyano-4-[(4-fluorotetrahydro-2H-pyran-4-yl)methoxy]phenyl}sulfonyl)-2-(1H-pyrrolo[2,3-b]pyridin-5-yloxy)benzamide]: the pEC50 is 7.17.

Take `CC1(C)CCC(CN2CCN(c3ccc(C(=O)NS(=O)(=O)c4ccc(N[C@H]5CC[C@@H](NC6CC6)CC5)c([N+](=O)[O-])c4)c(Oc4cnc5[nH]ccc5c4)c3)CC2)=C(c2ccc(Cl)cc2)C1` [Example 122, Cis-4-(4-{[2-(4-chlorophenyl)-4,4-dimethylcyclohex-1-en-1-yl]methyl}piperazin-1-yl)-N-[(4-{[4-(cyclopropylamino)cyclohexyl]amino}-3-nitrophenyl)sulfonyl]-2-(1H-pyrrolo[2,3-b]pyridin-5-yloxy)benzamide]: the pEC50 was 8.73.

Regarding `CC1(C)CCC(CN2CCN(c3ccc(C(=O)NS(=O)(=O)c4ccc(NC[C@H]5CC[C@@H](O)C5)c([N+](=O)[O-])c4)c(Oc4cnc5[nH]ccc5c4)c3)CC2)=C(c2ccc(Cl)cc2)C1` [Example 158, 4-(4-{[2-(4-chlorophenyl)-4,4-dimethylcyclohex-1-en-1-yl]methyl}piperazin-1-yl)-N-{[4-({[(1S,3R)-3-hydroxycyclopentyl]methyl}amino)-3-nitrophenyl]sulfonyl}-2-(1H-pyrrolo[2,3-b]pyridin-5-yloxy)benzamide], the pEC50 is 7.75.

Regarding `COCCNc1ccc(S(=O)(=O)NC(=O)c2ccc(N3CCN(CC4=C(c5ccc(Cl)cc5)CC(C)(C)CC4)CC3)cc2Oc2cnc3[nH]ccc3c2)cc1S(=O)(=O)C(F)(F)F` [Example 16, 4-(4-{[2-(4-chlorophenyl)-4,4-dimethylcyclohex-1-en-1-yl]methyl}piperazin-1-yl)-N-({4-[(2-methoxyethyl)amino]-3-[(trifluoromethyl)sulfonyl]phenyl}sulfonyl)-2-(1H-pyrrolo[2,3-b]pyridin-5-yloxy)benzamide], the pEC50 is 5.92.

For `CC1(C)CCC(CN2CCN(c3ccc(C(=O)NS(=O)(=O)c4ccc(NCc5ccc(O)cc5)c([N+](=O)[O-])c4)c(Oc4cnc5[nH]ccc5c4)c3)CC2)=C(c2ccc(Cl)cc2)C1` [Example 185, 4-(4-{[2-(4-chlorophenyl)-4,4-dimethylcyclohex-1-en-1-yl]methyl}piperazin-1-yl)-N-({4-[(4-hydroxybenzyl)amino]-3-nitrophenyl}sulfonyl)-2-(1H-pyrrolo[2,3-b]pyridin-5-yloxy)benzamide], the pEC50 is 7.56.

In the case of `CC1(C)CCC(CN2CCN(c3ccc(C(=O)NS(=O)(=O)c4ccc(OCC5(F)CCOCC5)c(S(=O)(=O)C(F)(F)F)c4)c(Oc4cnc5[nH]ccc5c4)c3)CC2)=C(c2ccc(Cl)cc2)C1` [Example 220, 4-(4-{[2-(4-chlorophenyl)-4,4-dimethylcyclohex-1-en-1-yl]methyl}piperazin-1-yl)-N-({4-[(4-fluorotetrahydro-2H-pyran-4-yl)methoxy]-3-[(trifluoromethyl)sulfonyl]phenyl}sulfonyl)-2-(1H-pyrrolo[2,3-b]pyridin-5-yloxy)benzamide], the pEC50 was less than 6.00.

Turning to `CCN1CCOCC1COc1ncc(S(=O)(=O)NC(=O)c2ccc(N3CCN(CC4=C(c5ccc(Cl)cc5)CC(C)(C)CC4)CC3)cc2Oc2cnc3[nH]ccc3c2)cc1Br` (stereo not shown) [Example 102, N-({5-bromo-6-[(4-ethylmorpholin-3-yl)methoxy]pyridin-3-yl}sulfonyl)-4-(4-{[2-(4-chlorophenyl)-4,4-dimethylcyclohex-1-en-1-yl]methyl}piperazin-1-yl)-2-(1H-pyrrolo[2,3-b]pyridin-5-yloxy)benzamide], the pEC50 is 6.21.

On to `CC1(C)CCC(CN2CCN(c3ccc(C(=O)NS(=O)(=O)c4ccc(NC5CCN(CC(F)F)CC5)c([N+](=O)[O-])c4)c(Oc4cnc5[nH]ccc5c4)c3)CC2)=C(c2ccc(Cl)cc2)C1` [Example 97, 4-(4-{[2-(4-chlorophenyl)-4,4-dimethylcyclohex-1-en-1-yl]methyl}piperazin-1-yl)-N-[(4-{[1-(2,2-difluoroethyl)piperidin-4-yl]amino}-3-nitrophenyl)sulfonyl]-2-(1H-pyrrolo[2,3-b]pyridin-5-yloxy)benzamide], for which the pEC50 was 7.26.

For the compound `CC1(C)CCC(CC2CCN(c3ccc(C(=O)NS(=O)(=O)c4cnc(OCC5(O)CCC(F)(F)CC5)c(Cl)c4)c(Oc4cnc5[nH]ccc5c4)c3)CC2)=C(c2ccc(Cl)cc2)C1` [Example 302, N-({5-chloro-6-[(4,4-difluoro-1-hydroxycyclohexyl)methoxy]pyridin-3-yl}sulfonyl)-4-(4-{[2-(4-chlorophenyl)-4,4-dimethylcyclohex-1-en-1-yl]methyl}piperidin-1-yl)-2-(1H-pyrrolo[2,3-b]pyridin-5-yloxy)benzamide], the pEC50 is 6.42.

For the compound `CC1(C)CCC(CN2CCN(c3ccc(C(=O)NS(=O)(=O)c4ccc(NC5CCN(C6COC6)CC5)c([N+](=O)[O-])c4)c(Oc4cnc5[nH]ccc5c4)c3)CC2)=C(c2ccc(Cl)cc2)C1` [Example 139, 4-(4-{[2-(4-chlorophenyl)-4,4-dimethylcyclohex-1-en-1-yl]methyl}piperazin-1-yl)-N-({3-nitro-4-[(1-oxetan-3-ylpiperidin-4-yl)amino]phenyl}sulfonyl)-2-(1H-pyrrolo[2,3-b]pyridin-5-yloxy)benzamide], the pEC50 was 7.77.

`CC1(C)CCC(CN2CCN(c3ccc(C(=O)NS(=O)(=O)c4ccc(OCC5C[C@H]6C=C[C@@H]5C6)c([N+](=O)[O-])c4)c(Oc4cnc5[nH]ccc5c4)c3)CC2)=C(c2ccc(Cl)cc2)C1` (stereo partly drawn) [Example 201, N-({4-[(1S,4S)-bicyclo[2.2.1]hept-5-en-2-ylmethoxy]-3-nitrophenyl}sulfonyl)-4-(4-{[2-(4-chlorophenyl)-4,4-dimethylcyclohex-1-en-1-yl]methyl}piperazin-1-yl)-2-(1H-pyrrolo[2,3-b]pyridin-5-yloxy)benzamide]: the pEC50 was 6.23.

`O=C(NS(=O)(=O)c1ccc(NCC2CCOCC2)c([N+](=O)[O-])c1)c1ccc(N2CCN(CC3=C(c4ccc(Cl)cc4)CCC4(CCN(C(CF)CF)CC4)C3)CC2)cc1Oc1cnc2[nH]ccc2c1` [Example 265, 4-(4-{[9-(4-chlorophenyl)-3-(1,3-difluoropropan-2-yl)-3-azaspiro[5.5]undec-8-en-8-yl]methyl}piperazin-1-yl)-N-({3-nitro-4-[(tetrahydro-2H-pyran-4-ylmethyl)amino]phenyl}sulfonyl)-2-(1H-pyrrolo[2,3-b]pyridin-5-yloxy)benzamide]: the pEC50 was 8.14.

Consider `CC1(C)CCC(CN2CCN(c3ccc(C(=O)NS(=O)(=O)c4ccc(OCC5CCOCC5)c(C(N)=O)c4)c(Oc4cnc5[nH]ccc5c4)c3)CC2)=C(c2ccc(Cl)cc2)C1` [Example 38, N-{[3-(aminocarbonyl)-4-(tetrahydro-2H-pyran-4-ylmethoxy)phenyl]sulfonyl}-4-(4-{[2-(4-chlorophenyl)-4,4-dimethylcyclohex-1-en-1-yl]methyl}piperazin-1-yl)-2-(1H-pyrrolo[2,3-b]pyridin-5-yloxy)benzamide], for which the pEC50 is 5.45.

Regarding `CC1(C)CCCC(CN2CCN(c3ccc(C(=O)NS(=O)(=O)c4ccc(NCC5CCOCC5)c([N+](=O)[O-])c4)c(Oc4cnc5[nH]ccc5c4)c3)CC2)=C1c1ccc(Cl)cc1` [Example 150, 4-(4-{[2-(4-chlorophenyl)-3,3-dimethylcyclohex-1-en-1-yl]methyl}piperazin-1-yl)-N-({3-nitro-4-[(tetrahydro-2H-pyran-4-ylmethyl)amino]phenyl}sulfonyl)-2-(1H-pyrrolo[2,3-b]pyridin-5-yloxy)benzamide], the pEC50 is 7.29.

In the case of `CC1(C)CCC(CN2CCN(c3ccc(C(=O)NS(=O)(=O)c4cnc(OCC5(F)CCOCC5)c(F)c4)c(Oc4cnc5[nH]ccc5c4)c3)CC2)=C(c2ccc(Cl)cc2)C1` [Example 248, 4-(4-{[2-(4-chlorophenyl)-4,4-dimethylcyclohex-1-en-1-yl]methyl}piperazin-1-yl)-N-({5-fluoro-6-[(4-fluorotetrahydro-2H-pyran-4-yl)methoxy]pyridin-3-yl}sulfonyl)-2-(1H-pyrrolo[2,3-b]pyridin-5-yloxy)benzamide], the pEC50 was 7.00.

For the compound `CC1(C)CCC(CN2CCN(c3ccc(C(=O)NS(=O)(=O)c4ccc(NCC5CN(CCF)CCO5)c([N+](=O)[O-])c4)c(Oc4cnc5[nH]ccc5c4)c3)CC2)=C(c2ccc(Cl)cc2)C1` (stereo not shown) [Example 165, 4-(4-{[2-(4-chlorophenyl)-4,4-dimethylcyclohex-1-en-1-yl]methyl}piperazin-1-yl)-N-{[4-({[4-(2-fluoroethyl)morpholin-2-yl]methyl}amino)-3-nitrophenyl]sulfonyl}-2-(1H-pyrrolo[2,3-b]pyridin-5-yloxy)benzamide], the pEC50 was 8.29.

The same assay, now with this note: Homo sapiens, RS4-11, Table 5, direct comparison Z=N with corresponding analogs Z=C; read-out: RS4; 11 EC50.
On to `COCCNc1ccc(S(=O)(=O)NC(=O)c2ccc(N3CCN(CC4=C(c5ccc(Cl)cc5)CC(C)(C)CC4)CC3)cc2Oc2cnc3[nH]ccc3c2)cc1S(=O)(=O)C(F)(F)F` [Example 16, 4-(4-{[2-(4-chlorophenyl)-4,4-dimethylcyclohex-1-en-1-yl]methyl}piperazin-1-yl)-N-({4-[(2-methoxyethyl)amino]-3-[(trifluoromethyl)sulfonyl]phenyl}sulfonyl)-2-(1H-pyrrolo[2,3-b]pyridin-5-yloxy)benzamide], for which the pEC50 was 5.92.
